# Columns and labels:
# [1] = Impurity formation / standard stability testing (clarity, color, pH, assay, impurities); format: physicochemical; settings: Drug Substance
# From the text: In order to further determine the stability of Formulations 1, 3A, 3B, 5A, 5B, 5C, 5D and 5E, the formulations were subjected to standard stability testing to determine impurity levels. The results are below in Tables 7-11.
# [2] = Freeze/thaw stability testing; format: physicochemical; settings: Drug Substance
# From the text: The results are below in Tables 13-18.
compound,measurement,setting,value
"CCCc1nn(C)c2c(=O)[nH]c(-c3cc(S(=O)(=O)N4CCN(C)CC4)ccc3OCC)nc12 [Drug Substance, Sildenafil base]",Assay (% of initial Conc),[1],100.70%
same,Impurity A,[1],BQL (BQL = Below Quantification Limit (Limit of Quantification = 0.05%))
same,Impurity B,[1],ND (ND = Not Detected (Limit of Detection = 0.01%))
same,Impurity C,[1],BQL (BQL = Below Quantification Limit (Limit of Quantification = 0.05%))
same,Impurity D,[1],BQL (BQL = Below Quantification Limit (Limit of Quantification = 0.05%))
same,Total Impurities,[1],0.00%
same,Unknown Impurity RRT 0.24,[1],ND (ND = Not Detected (Limit of Detection = 0.01%))
same,Unknown Impurity RRT 0.61,[1],ND (ND = Not Detected (Limit of Detection = 0.01%))
same,Physical appearance,[1]; first line of cell (clarity),"clear,"
same,Physical appearance,[1]; second line of cell (color),colorless
same,Color,[2],colorless
same,Physical appearance,[2],clear

# Reference: patent US10111833B2, “Sildenafil sublingual spray formulations” (Insys Development Company, Inc., priority 2015, dated 2018)
